Measured values: ChEMBL document CHEMBL1201862, “PubChem BioAssay data set” (2004)
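A five-concentration, 48-hour dose response in 96-well plates underlies each endpoint, interpolated linearly between surrounding concentrations. GI50 is the concentration that inhibits growth by half.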 Active and inactive are the calls of the source. Rule as the data show it: active = GI50 up to about 1.1 µM and inactive = higher.

Assays:
Assay in all cases: NCI tumour cell line growth inhibition, 48 h
OVCAR-4 = tested on: OVCAR-4
HCC 2998 = tested on: HCC 2998
SNB-19 = tested on: SNB-19
HOP-92 = tested on: HOP-92
ACHN = tested on: ACHN
HCT-116 = tested on: HCT-116
MCF7 = tested on: MCF7
SK-OV-3 = tested on: SK-OV-3
NCI-H226 = tested on: NCI-H226
SW-620 = tested on: SW-620
SK-MEL-5 = tested on: SK-MEL-5
SN12C = tested on: SN12C
SK-MEL-28 = tested on: SK-MEL-28
UO-31 = tested on: UO-31
Malme-3M = tested on: Malme-3M
T47D = tested on: T47D
OVCAR-3 = tested on: OVCAR-3
NCI-H23 = tested on: NCI-H23
DU-145 = tested on: DU-145
RXF 393 = tested on: RXF 393

SMILES | GI50 (OVCAR-4) | GI50 (HCC 2998) | GI50 (SNB-19) | GI50 (HOP-92) | GI50 (ACHN) | GI50 (HCT-116) | GI50 (MCF7) | GI50 (SK-OV-3) | GI50 (NCI-H226) | GI50 (SW-620) | GI50 (SK-MEL-5) | GI50 (SN12C) | GI50 (SK-MEL-28) | GI50 (UO-31) | GI50 (Malme-3M) | GI50 (T47D) | GI50 (OVCAR-3) | GI50 (NCI-H23) | GI50 (DU-145) | GI50 (RXF 393)
COc1cc(-c2ccc(Nc3ccccc3C(=O)O)c(OC)c2)ccc1Nc1ccccc1C(=O)O | 28.2 µM (inactive) | 21.7 µM (inactive) | 10.2 µM (inactive) | 41 µM (inactive) | 8.69 µM (inactive) | 0.792 µM (active) | 5.08 µM (inactive) | 23.4 µM (inactive) | 22.6 µM (inactive) | 7.38 µM (inactive) | 16.6 µM (inactive) | 9.91 µM (inactive) | 33.8 µM (inactive) | 13.6 µM (inactive) | 39.6 µM (inactive) | 11.2 µM (inactive) | 20.6 µM (inactive) | 18.3 µM (inactive) | 8.65 µM (inactive) | 21.2 µM (inactive)
COc1ccc2c(c1)Cc1cc(/N=[N+](\[O-])c3ccc4c(c3)Cc3cc(OC)ccc3-4)ccc1-2 | 40 µM (inactive) | 14.2 µM (inactive) | 51.8 µM (inactive) | 44.1 µM (inactive) | 37.2 µM (inactive) | 60.7 µM (inactive) | 19.7 µM (inactive) | > 100 µM (inactive) | 70.3 µM (inactive) | > 100 µM (inactive) | 18.1 µM (inactive) | > 100 µM (inactive) | 75.2 µM (inactive) | 24.9 µM (inactive) | 38.9 µM (inactive) | 38.5 µM (inactive) | 48.8 µM (inactive) | 65.6 µM (inactive) | > 100 µM (inactive) | 57.7 µM (inactive)
Cn1c2ccccc2c(=O)c2c(O)cc3c(c21)CC(C1(C)CO1)O3 (stereo not given) | 8.83 µM (inactive) | 1.79 µM (inactive) | 10.4 µM (inactive) | 9.08 µM (inactive) | 2 µM (inactive) | 0.935 µM (active) | 0.462 µM (active) | 5.53 µM (inactive) | 13.3 µM (inactive) | 1.17 µM (inactive) | 1.79 µM (inactive) | 1.42 µM (inactive) | 2.79 µM (inactive) | 1.42 µM (inactive) | 10.5 µM (inactive) | 11.5 µM (inactive) | 3.61 µM (inactive) | 2.02 µM (inactive) | 10.7 µM (inactive) | 1.17 µM (inactive)
CC(C)/C(Cl)=N/OC(=O)Nc1cccc(C(F)(F)F)c1 | 7.05 µM (inactive) | 15.8 µM (inactive) | 19 µM (inactive) | 1.75 µM (inactive) | 1.69 µM (inactive) | 8.2 µM (inactive) | 5.35 µM (inactive) | 17.7 µM (inactive) | 12.5 µM (inactive) | 1.35 µM (inactive) | 8.05 µM (inactive) | 7.1 µM (inactive) | 5.45 µM (inactive) | 7.96 µM (inactive) | 1.6 µM (inactive) | 4.1 µM (inactive) | 3.84 µM (inactive) | 14.5 µM (inactive) | 17.3 µM (inactive) | 5.9 µM (inactive)
C[N+](C)(C)c1ncnc2c1ncn2C1CCCO1 (stereo not given) | > 100 µM (inactive) | > 100 µM (inactive) | > 100 µM (inactive) | > 100 µM (inactive) | > 100 µM (inactive) | > 100 µM (inactive) | > 100 µM (inactive) | > 100 µM (inactive) | > 100 µM (inactive) | > 100 µM (inactive) | > 100 µM (inactive) | > 100 µM (inactive) | > 100 µM (inactive) | > 100 µM (inactive) | > 100 µM (inactive) | > 100 µM (inactive) | > 100 µM (inactive) | > 100 µM (inactive) | > 100 µM (inactive) | > 100 µM (inactive)
Cc1ccc2c(c1)C1(C)OC(C=CC1=O)O2 (stereo not given) | 0.774 µM (active) | 2.84 µM (inactive) | 2.75 µM (inactive) | 0.435 µM (active) | 0.522 µM (active) | 0.204 µM (active) | 1.27 µM (inactive) | 3.24 µM (inactive) | 3.02 µM (inactive) | 0.237 µM (active) | 1.32 µM (inactive) | 0.308 µM (active) | 0.586 µM (active) | 1.14 µM (inactive) | 0.341 µM (active) | 0.705 µM (active) | 0.344 µM (active) | 0.94 µM (active) | 2.72 µM (inactive) | 0.445 µM (active)
C=C(CC[C@@H](C)[C@H]1CC[C@H]2[C@@H]3C[C@@H](O)[C@H]4C[C@@H](O)CC[C@]4(CO)[C@H]3CC[C@]12C)C(C)C | 6.84 µM (inactive) | 0.382 µM (active) | 7.98 µM (inactive) | 8.28 µM (inactive) | 5.81 µM (inactive) | 2.9 µM (inactive) | 2.67 µM (inactive) | 9.1 µM (inactive) | 9.29 µM (inactive) | 5.98 µM (inactive) | 8.79 µM (inactive) | 6.11 µM (inactive) | 4.1 µM (inactive) | 3.42 µM (inactive) | 6.49 µM (inactive) | 1.79 µM (inactive) | 2.52 µM (inactive) | 5.75 µM (inactive) | 3.48 µM (inactive) | 3.32 µM (inactive)
C[C@]12CCNC(=O)C=C1CC[C@@H]1C2CC[C@@]2(C)C1CC[C@@H]2OC(=O)COc1ccc(N(CCCl)CCCl)cc1 (stereo not given in full) | 6.11 µM (inactive) | 3.84 µM (inactive) | 10.8 µM (inactive) | 7.73 µM (inactive) | 0.982 µM (active) | 3.73 µM (inactive) | 1.29 µM (inactive) | 6.27 µM (inactive) | 13.1 µM (inactive) | 2.23 µM (inactive) | 7.33 µM (inactive) | 4.65 µM (inactive) | 17 µM (inactive) | 4.76 µM (inactive) | 8.45 µM (inactive) | 1.88 µM (inactive) | 3.05 µM (inactive) | 2.99 µM (inactive) | 4.54 µM (inactive) | 4.37 µM (inactive)
c1ccc2c(c1)Sc1nccc3ccnc-2c13 | 59.2 µM (inactive) | 33.3 µM (inactive) | 20.7 µM (inactive) | 43.6 µM (inactive) | 13.8 µM (inactive) | 27.4 µM (inactive) | 12.6 µM (inactive) | > 100 µM (inactive) | 27.9 µM (inactive) | 19.3 µM (inactive) | 19.1 µM (inactive) | 39 µM (inactive) | 36.9 µM (inactive) | 7.5 µM (inactive) | 31.6 µM (inactive) | 27.7 µM (inactive) | > 100 µM (inactive) | 36.8 µM (inactive) | > 100 µM (inactive) | 63.8 µM (inactive)
CCOC(=O)C(NC(=O)CC(C)C)(NC(C)C)C(F)(F)F (stereo not given) | > 100 µM (inactive) | > 100 µM (inactive) | > 100 µM (inactive) | > 100 µM (inactive) | > 100 µM (inactive) | > 100 µM (inactive) | > 100 µM (inactive) | > 100 µM (inactive) | > 100 µM (inactive) | > 100 µM (inactive) | > 100 µM (inactive) | > 100 µM (inactive) | > 100 µM (inactive) | > 100 µM (inactive) | > 100 µM (inactive) | > 100 µM (inactive) | > 100 µM (inactive) | > 100 µM (inactive) | > 100 µM (inactive) | > 100 µM (inactive)
O=C(OCCN1CCCCC1)C(c1ccccc1)C1(O)CCSCC1 (stereo not given) | > 100 µM (inactive) | > 100 µM (inactive) | > 100 µM (inactive) | > 100 µM (inactive) | > 100 µM (inactive) | > 100 µM (inactive) | > 100 µM (inactive) | > 100 µM (inactive) | > 100 µM (inactive) | > 100 µM (inactive) | > 100 µM (inactive) | > 100 µM (inactive) | > 100 µM (inactive) | > 100 µM (inactive) | > 100 µM (inactive) | > 100 µM (inactive) | > 100 µM (inactive) | > 100 µM (inactive) | > 100 µM (inactive) | > 100 µM (inactive)
CN1c2ccccc2C(=O)Nc2cnc(Cl)nc21 | 93.1 µM (inactive) | > 100 µM (inactive) | 36.6 µM (inactive) | 35.7 µM (inactive) | > 100 µM (inactive) | > 100 µM (inactive) | > 100 µM (inactive) | > 100 µM (inactive) | > 100 µM (inactive) | > 100 µM (inactive) | > 100 µM (inactive) | 66.7 µM (inactive) | > 100 µM (inactive) | > 100 µM (inactive) | > 100 µM (inactive) | > 100 µM (inactive) | > 100 µM (inactive) | > 100 µM (inactive) | > 100 µM (inactive) | > 100 µM (inactive)
Cc1nc(N)sc1/N=N/c1ccccc1Br | > 35.3 µM (inactive) | 8.87 µM (inactive) | > 44.5 µM (inactive) | 18 µM (inactive) | 43.1 µM (inactive) | 33.2 µM (inactive) | 35.4 µM (inactive) | > 57.7 µM (inactive) | 39.7 µM (inactive) | > 53.1 µM (inactive) | 31.3 µM (inactive) | 34.8 µM (inactive) | 33.1 µM (inactive) | 31 µM (inactive) | 26.2 µM (inactive) | 15.8 µM (inactive) | 38.2 µM (inactive) | 28.2 µM (inactive) | 34.7 µM (inactive) | 21.8 µM (inactive)
COC(=O)[C@]1(c2cc3ccccc3[nH]2)CC2CNC1C1OC(C)(C)OC21 (stereo not given in full) | > 100 µM (inactive) | > 100 µM (inactive) | > 100 µM (inactive) | > 100 µM (inactive) | > 100 µM (inactive) | > 100 µM (inactive) | > 100 µM (inactive) | > 100 µM (inactive) | > 100 µM (inactive) | > 100 µM (inactive) | > 100 µM (inactive) | > 100 µM (inactive) | > 100 µM (inactive) | > 100 µM (inactive) | > 100 µM (inactive) | 52.4 µM (inactive) | > 100 µM (inactive) | > 100 µM (inactive) | > 100 µM (inactive) | 60.1 µM (inactive)
